Several values for one entry are separate records, joined by “and”; a condition that tells them apart may be missing. Equal entries are not always repeated.
These compounds were tested against Poly [ADP-ribose] polymerase 1 (Homo sapiens, UniProt P09874) (assay: Inhibitory concentration against purified poly ADP-ribose polymerase-1 done in PARP inhibition assay kit).
Sequence of Poly [ADP-ribose] polymerase 1 (P09874 whole entry): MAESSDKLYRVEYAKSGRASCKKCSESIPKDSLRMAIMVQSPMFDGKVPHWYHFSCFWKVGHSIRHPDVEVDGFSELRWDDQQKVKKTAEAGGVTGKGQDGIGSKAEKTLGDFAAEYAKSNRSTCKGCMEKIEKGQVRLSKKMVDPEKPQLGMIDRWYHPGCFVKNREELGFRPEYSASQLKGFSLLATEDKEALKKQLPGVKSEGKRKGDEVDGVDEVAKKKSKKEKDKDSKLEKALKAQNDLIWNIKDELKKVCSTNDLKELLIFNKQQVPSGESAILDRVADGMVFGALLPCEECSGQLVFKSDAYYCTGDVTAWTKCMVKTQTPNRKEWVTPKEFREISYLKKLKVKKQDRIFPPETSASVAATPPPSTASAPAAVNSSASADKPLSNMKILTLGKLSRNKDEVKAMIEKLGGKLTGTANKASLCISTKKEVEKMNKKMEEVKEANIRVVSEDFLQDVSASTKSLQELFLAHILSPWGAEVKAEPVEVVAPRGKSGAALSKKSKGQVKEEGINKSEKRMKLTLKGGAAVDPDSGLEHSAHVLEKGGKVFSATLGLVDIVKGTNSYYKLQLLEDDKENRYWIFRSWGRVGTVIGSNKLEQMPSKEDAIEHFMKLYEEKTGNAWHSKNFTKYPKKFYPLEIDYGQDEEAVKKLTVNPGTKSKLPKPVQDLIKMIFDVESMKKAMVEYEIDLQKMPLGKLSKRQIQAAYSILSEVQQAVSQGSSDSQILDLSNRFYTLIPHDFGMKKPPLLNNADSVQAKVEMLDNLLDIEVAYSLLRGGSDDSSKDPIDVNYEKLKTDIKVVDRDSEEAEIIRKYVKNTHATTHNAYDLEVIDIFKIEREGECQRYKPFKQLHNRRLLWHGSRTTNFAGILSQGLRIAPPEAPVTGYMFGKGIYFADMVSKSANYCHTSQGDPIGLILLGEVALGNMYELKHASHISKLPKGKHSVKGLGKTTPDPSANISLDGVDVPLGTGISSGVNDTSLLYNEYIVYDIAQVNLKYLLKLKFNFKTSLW

Row | SMILES | IC50
1 | O=c1[nH]c2c(c3ccccc13)Cc1cc(S(=O)(=O)n3ccnc3)c(F)cc1-2 | 500 nM
2 | O=c1[nH]c2c(c3ccccc13)Cc1cc(S(=O)(=O)NCCCn3ccnc3)ccc1-2 | 394 nM
3 | O=S(=O)(NCCCNN1CCOCC1)c1cc2c(cc1F)-c1nc(O)c3ccccc3c1C2 | 450 nM
4 | O=c1[nH]c2c(c3ccccc13)Cc1ccccc1-2 | > 3000 nM
5 | O=c1[nH]c2c(c3ccccc13)Cc1cc(F)ccc1-2 | 650 nM
6 | O=c1[nH]c2c(c3ccccc13)Cc1cc(S(=O)(=O)NCCCc3ccccc3)ccc1-2 | > 3000 nM
7 | O=c1[nH]c2c(c3ccccc13)Cc1cc([N+](=O)[O-])ccc1-2 | 300 nM
8 | Nc1ccc2c(c1)Cc1c-2[nH]c(=O)c2ccccc12 | 98 nM

The next lines start with the values.

Row | IC50 | SMILES
9 | 500 nM | O=[N+]([O-])c1ccc2c(c1)-c1nc(O)c3ccccc3c1C2
10 | 300 nM | Nc1ccc2c(c1)-c1[nH]c(=O)c3ccccc3c1C2
11 | 500 nM | Oc1nc2c(c3ccccc13)Cc1ccc(F)cc1-2
12 | > 3000 nM | CN1CCN(CC(=O)Nc2ccc3c(c2)-c2[nH]c(=O)c4ccccc4c2C3)CC1
13 | 700 nM | O=S(=O)(O)c1ccc2c(c1)Cc1c-2nc(O)c2ccccc12
14 | > 3000 nM and 400 nM | O=C(CN1CCOCC1)Nc1ccc2c(c1)-c1nc(O)c3ccccc3c1C2

From ChEMBL document CHEMBL1141136, “Discovery of potent poly(ADP-ribose) polymerase-1 inhibitors from the modification of indeno[1,2-c]isoquinolinone” (J Med Chem, 2005)
